The record followed here is patent publication US8980848B2, “Flavonoid dimers and their use” (The Hong Kong Polytechnic University, priority 2010, dated 2015).

As a reminder, the IC50 is the concentration needed to halve the response being measured. In general, EC50 refers to the concentration needed to bring the measured effect to its halfway point. As usually defined, the melting point is the temperature, or range, at which the solid turns liquid.

Data set [1] is described as follows: Tumor cell line cytotoxicity of flavonoid dimers, LCC6. The class given is cell-based, human. The note with it: human, LCC6 cells, IC50 of compound alone. An outline of the steps:
(§1)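 LCC6, LCC6MDR and L929 cells seeded at 1×10^4 cells/well and exposed to graded doses of flavonoid dimers. Incubation 72 hrs at 37° C., 5% CO2. Read-out: % survivors.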

The subject of another data set is Raw264.7 cells. Nature of the data set: Cytotoxicity, mouse macrophage Raw264.7. It is filed as cell-based. The note with it: Mus musculus, RAW264.7, 72 h. Here is the method: (§2) (a) Mouse Macrophage Raw 264.7 and Primary Mouse PEM Cells. The cytotoxicity assay of reference antileishmanial compounds and the compounds of this invention was performed against mouse macrophage cell line, Raw 264.7 and primary mouse PEM cells in order to calculate the therapeutic index (IC50 value for cytotoxicity of the compounds divided by IC50 value for antileishmanial activity of the compounds). The cells were grown in supplemented DMEM media in an atmosphere of 95% air with 5% CO2 at 37° C. In brief, Raw264.7 cells and PEM cells were seeded into 96-well flat bottom microtiter plate at 1×10^4cells and 2×10^4 cells per well in a final volume of 100 μL media, respectively. A graded dose of flavonoid dimers or antileishmanials was added into wells. The plate was incubated at 37° C. for 72 hrs at the atmosphere 5% CO2 in the air. The % of survivors was determined.

The next data set concerns Lm50122 promastigotes. Nature of the data set: In vitro anti-promastigote activity, Lm50122. The note with it: Leishmania major, 72 h, read-out: Anti-promastigotes activity (IC50, μM) Lm50122. The class given is cell-based, Leishmania major. How it is done: (§3) Cell Lines and Cell Culture. Promastigotes of Leishmania donovani (wild type LdAG83, pentamidine-resistant LdAG83-PentR50, and SSG-resistant Ld39) and Leishmania major [MHOM/IL/67/JERICHO II (Lm50122), from ATCC] were used in this study.
(§4) In Vitro Anti-Promastigote Activity. The viability of promastigotes was determined by the Cell Titer 96° Aqueous Assay (Promega) that employs a tetrazolium compound (MTS, 2-(4,5-Dimethylthiazol-2-yl-)-5-[3-(carboxymethoxy)phenyl]-2-(4-sulfophenyl)-2H-tetrazolium) and electron coupling reagent, phenazine methosulfate (PMS).^7 Promastigotes were seeded into 96-well flat bottom microtiter plate at 1×10^5 cells per well in a final volume of 100 μL medium and incubated with a series concentration of synthetic flavonoid dimers or known antileishmanials. The parasites were incubated at 27° C. for 72 hrs. Fresh solution of 2 mg/mL MTS and 0.92 mg/mL PMS were prepared in a ratio of 20:1 (MTS:PMS). After 72 hrs incubation, 10 μL of MTS:PMS mixture was added into each well of microtiter plate. The plate was then incubated at 27° C. for 4 hrs for color development. After 4 hrs incubation, the OD values were determined at 490 nm using automatic microtiter plate reader (Bio-Rad).

The next data set addresses Pgp (LCC6MDR cells) (Homo sapiens, UniProt P08183). The data set can be described thus: Cell proliferation assay: Pgp-modulating activity, reversal of anticancer drug resistance in LCC6MDR cells. The note with it: for RF (Relative Fold), cpd at 0.5 μM: RF = (IC50 without modulator)/(IC50 with 0.5 μM modulator); for RF (Relative Fold), cpd at 0.5 μM / RF (Relative Fold), cpd at 1 μM: paclitaxel; for RF (Relative Fold), cpd at 0.5 μM / EC50 / RF (Relative Fold), cpd at 1 μM: LCC6MDR; for EC50: EC50 of compounds for reversing anticancer drug resistance (nM); for Therapeutic index: IC50 of compounds for L929/EC50 of compounds for lowering paclitaxel drug resistance; for RF (Relative Fold), cpd at 1 μM: RF = (IC50 without modulator)/(IC50 with 1.0 μM modulator).

The subject of data set [2] is LdAG83 promastigotes (wild type). The data set can be described thus: In vitro anti-promastigote activity, LdAG83. It is filed as cell-based, Leishmania donovani. The note with it: Leishmania donovani, 72 h, read-out: Anti-promastigotes activity (IC50, μM) LdAG83. Here is the method: as §3, §4
The subject of data set [3] is Ld39 promastigotes (SSG-resistant). The data set can be described thus: In vitro anti-promastigote activity, Ld39. The note with it: Leishmania donovani, 72 h, read-out: Anti-promastigotes activity (IC50, μM) Ld39. The class given is cell-based, Leishmania donovani. Here is the method:
as §3, §4

Data set [4] is described as follows: Cytotoxicity of flavonoid dimers, L929 mouse fibroblast. The note with it: mouse, L929 fibroblast cells, IC50 of compound alone, 72 hrs, mouse fibroblast. The class given is cell-based. The procedure, abridged: as §1
Data set [5] is described as follows: Tumor cell line cytotoxicity of flavonoid dimers, LCC6MDR. It is filed as cell-based, human. The note with it: human, LCC6MDR cells, IC50 of compound alone. An outline of the steps:
as §1

Another data set relates to PEM cells. The data set can be described thus: Cytotoxicity, primary mouse peritoneal elicited macrophage (PEM). The class given is cell-based. How it is done:
as §2

The next data set concerns Ld39 amastigotes. The data set can be described thus: In vitro anti-amastigote activity, Ld39 amastigotes in mouse PEM. The note with it: Leishmania donovani, in Mus musculus, 72 h, read-out: Ld39 (IC50, mM).
The mark [6] stands for this setting: Mus musculus, Macrophage, Table 7, cytotoxicity.
Where [7] appears, read: cytotoxicity, primary mouse macrophage, 72 hrs.

Chain of Pgp (LCC6MDR cells) (P08183 whole entry): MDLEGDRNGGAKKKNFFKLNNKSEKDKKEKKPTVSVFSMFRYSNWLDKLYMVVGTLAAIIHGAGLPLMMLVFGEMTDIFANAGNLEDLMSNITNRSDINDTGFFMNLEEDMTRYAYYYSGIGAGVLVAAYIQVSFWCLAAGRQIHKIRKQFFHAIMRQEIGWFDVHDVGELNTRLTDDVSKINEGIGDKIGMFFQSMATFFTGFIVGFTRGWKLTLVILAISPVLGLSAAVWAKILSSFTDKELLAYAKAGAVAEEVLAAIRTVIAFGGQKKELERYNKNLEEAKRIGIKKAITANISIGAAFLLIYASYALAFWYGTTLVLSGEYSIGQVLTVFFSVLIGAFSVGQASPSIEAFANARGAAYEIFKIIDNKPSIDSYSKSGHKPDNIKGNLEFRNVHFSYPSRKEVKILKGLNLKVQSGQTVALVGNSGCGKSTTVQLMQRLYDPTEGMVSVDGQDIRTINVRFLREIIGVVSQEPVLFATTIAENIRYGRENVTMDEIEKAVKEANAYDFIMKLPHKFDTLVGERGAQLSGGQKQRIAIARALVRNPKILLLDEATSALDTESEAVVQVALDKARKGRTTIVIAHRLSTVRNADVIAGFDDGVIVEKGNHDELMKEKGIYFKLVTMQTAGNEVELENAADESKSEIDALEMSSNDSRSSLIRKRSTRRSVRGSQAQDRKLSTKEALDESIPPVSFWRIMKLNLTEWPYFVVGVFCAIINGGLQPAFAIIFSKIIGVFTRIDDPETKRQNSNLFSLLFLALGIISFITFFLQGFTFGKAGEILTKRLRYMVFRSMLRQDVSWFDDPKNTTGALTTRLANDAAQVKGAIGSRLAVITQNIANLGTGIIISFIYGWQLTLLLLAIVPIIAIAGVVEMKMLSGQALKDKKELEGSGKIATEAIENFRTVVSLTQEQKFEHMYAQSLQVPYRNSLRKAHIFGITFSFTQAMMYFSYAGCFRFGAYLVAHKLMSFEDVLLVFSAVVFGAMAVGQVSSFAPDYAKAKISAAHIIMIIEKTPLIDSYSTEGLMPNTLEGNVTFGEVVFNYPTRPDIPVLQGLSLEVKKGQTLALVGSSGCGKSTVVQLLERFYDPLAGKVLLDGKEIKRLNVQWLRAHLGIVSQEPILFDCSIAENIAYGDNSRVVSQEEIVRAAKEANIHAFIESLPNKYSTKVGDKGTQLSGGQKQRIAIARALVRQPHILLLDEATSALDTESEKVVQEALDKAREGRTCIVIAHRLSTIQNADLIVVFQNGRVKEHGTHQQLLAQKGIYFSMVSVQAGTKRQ
Method for Ld39 amastigotes: Peritoneal elicited macrophages (PEM) from mouse were obtained as previously described. A round cover slip (12 mm in diameter) was placed into each well of 24-well culture plate. Mouse macrophages were resuspended in supplemented DMEM media containing 10% heat inactivated fetal bovine serum (v/v), 100 U/mL penicillin and 100 μg/mL streptomycin and seeded into each well at a cell density of 1×10^5 cells per 500 μL. Macrophages were allowed to attach overnight and the non-adherent cells were removed by gentle washing twice with unsupplemented DMEM media. […] Non-internalized promastigotes were removed by washing with unsupplemented DMEM media for two times. Infected macrophages were further incubated in 500 μL supplemented DMEM media in the presence or absence of flavonoid dimers or known antileishmanials for 72 hrs at 37° C. After incubation, the cover slips were stained with Giemsa and the amastigotes inside each macrophage (100 macrophages per treatment) were counted under microscope. The percentage of macrophages infected and number of amastigotes per 100 macrophages was enumerated.
The % of infected macrophage and the number of amastigotes per 100 macrophages were counted by staining with Giemsa.
Method for Pgp (LCC6MDR cells): Cell Proliferation Assay. 6,000 cells of LCC6 or LCC6MDR and anticancer drugs (paclitaxel, vinblastine, vincristine, doxorubicin and mitoxantrone) were mixed with or without modulators to a final volume of 200 μL in each well of 96-well plates. […] The plates were then incubated for 5 days at 37° C. […] IC50 values were calculated from the dose-response curves of MTS assays (Prism 4.0).

As for `COC(=O)c1ccc(CN(CCOCCOc2ccc(-c3cc(=O)c4ccccc4o3)cc2)CCOCCOc2ccc(-c3cc(=O)c4ccccc4o3)cc2)cc1` [Compound 20, 1,13-Bis[4′-(4H-chromen-4-on-2-yl)phenyl]-N-(4-methoxycarbonylbenzyl)-1,4,10,13-tetraoxa-7-azamidecane], the IC50 at 72 h stood at 33.3 ± 10.8 µM in data set [1], 11.4 ± 4.4 µM in data set [4] and 64.8 ± 14.1 µM in data set [5]. Besides, the IC50 in the data set with Raw264.7 cells is 45.7 ± 19.1 µM; with Lm50122 promastigotes, > 100 µM; in [2] it was > 100 µM; in data set [3], > 100 µM. For the same compound, the “RF (Relative Fold), cpd at 0.5 μM” value at Pgp (LCC6MDR cells) is given as “(2.1)”.
In turn, `O=c1cc(-c2ccc(OCCOCCN(CCOCCOc3ccc(-c4cc(=O)c5ccccc5o4)cc3)Cc3ccc(F)cc3)cc2)oc2ccccc12` [Compound 34, 1,13-Bis[4′-(4H-chromen-4-on-2-yl)phenyl]-7-(4-fluorobenzyl)-1,4,10,13-tetraoxa-7-azamidecane] returned a melting point of 119 to 122 °C. Moreover, in data set [1], the IC50 at 72 h is > 100 µM. Moreover, the EC50 on Pgp (LCC6MDR cells) (Paclitaxel) is 255 ± 5 nM. In addition, on Pgp (LCC6MDR cells), the Therapeutic index is given as 77.3 and the “RF (Relative Fold), cpd at 0.5 μM” value is “(31.2)”. Besides, the midpoint of inhibition in data set [4], the IC50 at 72 h, lay at 19.7 µM. For the same compound, in data set [5], the IC50 at 72 h was > 83 µM.
Compound `O=c1cc(-c2ccc(OCCOCCN(CCOCCOc3ccc(-c4cc(=O)c5ccccc5o4)cc3)Cc3ccc(F)c(F)c3)cc2)oc2ccccc12` [Compound 38, 1,13-Bis[4′-(4H-chromen-4-on-2-yl)phenyl]-7-(3,4-difluorobenzyl)-1,4,10,13-tetraoxa-7-azamidecane] returned a melting point of 96 to 98 °C. Also, the concentration for half-maximal inhibition (IC50) at 72 h in [1] amounted to 32.5 ± 11 µM. For the same compound, at Pgp (LCC6MDR cells), the “RF (Relative Fold), cpd at 0.5 μM” value is on record as “(49.3)”. For the same compound, in [4], the half-inhibitory concentration (IC50) at 72 h was 42.2 ± 2.1 µM. Besides, the half-inhibitory concentration (IC50) at 72 h in data set [5] was found to be 33.6 ± 4.3 µM.
In turn, `O=c1cc(-c2ccc(OCCOCCN(CCOCCOc3ccc(-c4cc(=O)c5ccccc5o4)cc3)Cc3ccc4c(c3)OCO4)cc2)oc2ccccc12` [Compound 42e, 1,13-Bis[4′-(4H-chromen-4-on-2-yl)phenyl]-7-(5-piperonyl)-1,4,10,13-tetraoxa-7-azamidecane] had a melting point of 69 to 70 °C. Besides, the IC50 at 72 h in data set [1] is > 100 µM. At Pgp (LCC6MDR cells) (Paclitaxel), the EC50 was found to be 204 ± 20 nM. Further, on Pgp (LCC6MDR cells), the Therapeutic index is recorded as >490.2; the “RF (Relative Fold), cpd at 0.5 μM” value is reported as “(31.2)”; the “RF (Relative Fold), cpd at 1 μM” value is recorded as “(117.8)”. Besides, the half-inhibitory concentration (IC50) at 72 h in [4] was > 100 µM. In data set [5], the IC50 at 72 h was > 100 µM.
In turn, `O=c1cc(-c2ccc(OCCOCCN(CCOCCOc3ccc(-c4cc(=O)c5ccccc5o4)cc3)Cc3ccc(Cl)cc3)cc2)oc2ccccc12` [Compound 49, 1,13-Bis[4′-(4H-chromen-4-on-2-yl)phenyl]-7-(4-chlorobenzyl)-1,4,10,13-tetraoxa-7-azamidecane] gave a melting point of 81 to 82 °C. Further, the IC50 at 72 h in data set [1] is > 100 µM. The EC50 at Pgp (LCC6MDR cells) (Paclitaxel) came to 177 ± 14 nM. In addition, on Pgp (LCC6MDR cells), the Therapeutic index was >440.7; the “RF (Relative Fold), cpd at 0.5 μM” value was “(41.4)”; the “RF (Relative Fold), cpd at 1 μM” value is “(95.7)”. The IC50 at 72 h in data set [4] was > 78 µM. In addition, in data set [5], the IC50 at 72 h is > 100 µM.
Compound `O=c1cc(-c2ccc(OCCOCCN(CCOCCOc3ccc(-c4cc(=O)c5ccccc5o4)cc3)Cc3ccc(-c4ccccc4)cc3)cc2)oc2ccccc12` [Compound 57, 1,13-Bis[4′-(4H-chromen-4-on-2-yl)phenyl]-7-(4-phenylbenzyl)-1,4,10,13-tetraoxa-7-azamidecane] came in with a melting point of 106 to 107 °C. In addition, the 50% inhibitory concentration (IC50) at 72 h in [1] is > 99 µM. Besides, the concentration giving a half-maximal response (EC50) at Pgp (LCC6MDR cells) (Daunorubicin) is 76 ± 14 nM. The EC50 at Pgp (LCC6MDR cells) (Doxorubicin) was 94 ± 1 nM. Besides, the EC50 at Pgp (LCC6MDR cells) (Mitoxantrone) is 65 ± 19 nM. Besides, on Pgp (LCC6MDR cells) (Paclitaxel), the concentration for a half-maximal effect (EC50) turned out to be 72 ± 21 nM. Moreover, at Pgp (LCC6MDR cells) (Vinblasinte, vinblastine), the EC50 came out at 38 ± 10 nM. Moreover, the EC50 at Pgp (LCC6MDR cells) (Vincristine) turned out to be 83 ± 12 nM. For the same compound, at Pgp (LCC6MDR cells), the Therapeutic index is listed as >958.3; the “RF (Relative Fold), cpd at 0.5 μM” value was “(102.1)”; the “RF (Relative Fold), cpd at 1 μM” value is on record as “(117.8)”. In addition, the IC50 at 72 h in [4] is > 69 µM. Besides, the IC50 at 72 h in data set [5] is > 62 µM.
Turning to `O=c1cc(-c2ccc(OCCOCCN(CCOCCOc3ccc(-c4cc(=O)c5ccccc5o4)cc3)Cc3cccc4ccccc34)cc2)oc2ccccc12` [Compound 59, 1,13-Bis[4′-(4H-chromen-4-on-2-yl)phenyl]-7-(1-naphthalenylmethyl)-1,4,10,13-tetraoxa-7-azamidecane], the melting point lay within 96 to 97 °C. The IC50 at 72 h in [1] was > 100 µM. Moreover, on Pgp (LCC6MDR cells), the “RF (Relative Fold), cpd at 0.5 μM” value is reported as “(2.2)” and the “RF (Relative Fold), cpd at 1 μM” value is recorded as “(80.6)”. For the same compound, the IC50 at 72 h in data set [4] was > 100 µM. Also, the IC50 at 72 h in data set [5] was > 100 µM.
As for `O=C(c1ccccc1)c1ccc(CN(CCOCCOc2ccc(-c3cc(=O)c4ccccc4o3)cc2)CCOCCOc2ccc(-c3cc(=O)c4ccccc4o3)cc2)cc1` [Compound 61, 1,13-Bis[4′-(4H-chromen-4-on-2-yl)phenyl]-7-(4-benzoylbenzyl)-1,4,10,13-tetraoxa-7-azamidecane], the melting point is 71 to 72 °C. In addition, the 50% inhibitory concentration (IC50) at 72 h in [1] was > 91 µM. On Pgp (LCC6MDR cells), the “RF (Relative Fold), cpd at 0.5 μM” value was “(1.9)” and the “RF (Relative Fold), cpd at 1 μM” value is “(30.0)”. In addition, the half-inhibitory concentration (IC50) at 72 h in data set [4] is > 100 µM. Moreover, in data set [5], the IC50 at 72 h was > 100 µM.
For `O=c1cc(-c2ccc(O)c(O)c2)oc2cc(O)cc(O)c12` [Luteolin, luteolin], the IC50 in the data set with PEM cells (setting [6]) worked out at 77.7 ± 7.7 µM; in the data set on PEM cells (setting [7]) it was 77.7 ± 7.7 µM; in the data set with Ld39 amastigotes, 0.0077 ± 0.0036 mM.
Turning to `O=c1c(O)c(-c2ccc(O)c(O)c2)oc2cc(O)cc(O)c12` [Quercetin, quercetin], the figures for the IC50 in the data set on PEM cells (setting [6]), in the data set on PEM cells (setting [7]) and with Ld39 amastigotes were > 100 µM, > 100 µM and 0.006 ± 0.0011 mM, respectively.
